Measurements as given in patent publication US12527798B2, “Preservation of immune response during chemotherapy regimens” (Pharmacosmos Holding A/S, priority 2016, dated 2026).
Like-named read-outs stand apart in the source and are kept apart here.

Tests used:
Format in all cases: in vivo
MC38 tumor cells [1] = details: interim data, dosing schedule not given
Procedure: Anti-tumor activity of Compound I in combination with mouse anti-PD-L1 (clone 10F.9G2), and 5-flurouracil (5-FU) was evaluated in the MC38 syngeneic murine colon carcinoma model. For all xenograft studies, nine-week old female C57BL/6 mice (C57BL/6NCrl) were implanted with MC38 tumor cells and treatment was initiated when mean tumor volume was approximately 100 mm^3.
Briefly, Compound I (100 mg/kg) and 5-FU (75 mg/kg) were administered intraperitoneally (IP) once weekly for three doses. […] In the Induction (I) dosing schedule, mouse anti-PD-L1 (100 μg/animal, IP) was given twice weekly for two weeks starting on Day 1 and ending on Day 15. In the Maintenance (M) dosing schedule, mouse anti-PD-L1 (100 μg/animal, IP) was given twice weekly starting on Day 15 and continuing through the end of study. In the Induction+Maintenance (IM) dosing schedule, mouse anti-PD-L1 (100 μg/animal, IP) was given twice weekly starting on Day 1 and continuing through the end of study.
(§1) Single, two, and three drug combinations were tested and Compound I was administered minutes prior to chemotherapy treatment. Complete response (CR) and partial response (PR) were calculated using standard Charles River Laboratories (CRL; RTP, NC) criteria. Body weight (BW) and health were monitored, and tumor volume was measured twice weekly. The individual tumor volume endpoint was 1000 mm^3 or Day 100, whichever came first. The arms of the study included the following: • 1) vehicle • 2) 5-FU+anti-PD-L1 (clone 10F.9G2), IM dosing schedule • 3) Compound I+5-FU+anti-PD-L1 (clone 10F.9G2), IM dosing schedule • 4) 5-FU+anti-mouse PD-L1 (clone 10F.9G2), M dosing schedule • 5) Compound I+5-FU+anti-mouse PD-L1 (clone 10F.9G2), M dosing schedule • 6) 5-FU+anti-mouse PD-L1 (clone 10F.9G2), I dosing schedule • 7) Compound I+5-FU+anti-mouse PD-L1 (clone 10F.9G2), I dosing schedule

MC38 tumor cells [2] = details: dosing schedule not given, anti-PD-L1 combination study
Procedure: Anti-tumor activity of Compound I in combination with PD-L1 (clone 10F.9G2) and oxaliplatin was evaluated in the MC38 syngeneic murine colon carcinoma model. For all xenograft studies, nine-week old female C57BL/6 mice (C57BL/6NCrl) were implanted with MC38 tumor cells and treatment was initiated when mean tumor volume was approximately 100 mm^3.
Briefly, Compound I (100 mg/kg) and oxaliplatin (10 mg/kg) were administered intraperitoneally (IP) once weekly for three doses and the checkpoint inhibitor administration was varied as depending on the dosing schedule. In the Induction (I) dosing schedule, mouse anti-PD-L1 (100 μg/animal, IP) was given twice weekly for two weeks starting on Day 1 and ending on Day 15. In the Maintenance (M) dosing schedule, mouse anti-PD-L1 (100 μg/animal, IP) was given twice weekly starting on Day 15 and continuing through the end of study. In the Induction+Maintenance (IM) dosing schedule, mouse anti-PD-L1 (100 μg/animal, IP) was given twice weekly starting on Day 1 and continuing through the end of study.
as §1, with “administered 30” for “administered”, “2) Compound I+anti-PD-L1” for “2) 5-FU+anti-PD-L1”, “Compound I+Oxaliplatin+anti-PD-L1” for “Compound I+5-FU+anti-PD-L1”, “4) Oxaliplatin+anti-mouse” for “4) 5-FU+anti-mouse”, “Compound I+oxaliplatin+anti-mouse” for “Compound I+5-FU+anti-mouse”, “6) oxaliplatin+anti-mouse” for “6) 5-FU+anti-mouse”

MC38 tumor cells [3] = details: dosing schedule not given, anti-PD-1 combination study
Procedure: For all xenograft studies, nine-week old female C57BL/6 mice (C57BL/6NCrl) were implanted with MC38 tumor cells and treatment was initiated when mean tumor volume was approximately 100 mm^3. Compound I was administered in combination with oxaliplatin and […] according to the Induction and Maintenance (IM) dosing schedule, which is shown in FIG. 3.
Briefly, Compound I (100 mg/kg) and oxaliplatin (10 mg/kg) were administered intraperitoneally (IP) once weekly for three doses and mouse […] (5 mg/kg, IP) was given twice weekly starting on Day 1 and continuing through the end of study.
Single, two, and three drug combinations were tested and Compound I was administered 30 minutes prior to chemotherapy treatment. Complete response (CR) and partial response (PR) were calculated using standard Charles River Laboratories (CRL; RTP, NC) criteria. Body weight (BW) and health were monitored, and tumor volume was measured twice weekly. The individual tumor volume endpoint was 1000 mm^3 or Day 100, whichever came first.

Compound	Overall Survival @ D29% (MC38 tumor cells [1]; Day 29) [%]	Complete Response % (MC38 tumor cells [1]; MC38) [%]	Objective Response Rate % (MC38 tumor cells [1]; MC38) [%]	Partial Response % (MC38 tumor cells [1]; MC38) [%]	Progressive Disease % (MC38 tumor cells [1]; percent of tumors that have doubled in size by Day 29) [%]	Complete Response % (MC38 tumor cells [2]) [%]	Objective Response Rate % (MC38 tumor cells [2]) [%]	Overall Survival (OS) (MC38 tumor cells [2])	Partial Response % (MC38 tumor cells [2]) [%]	Complete Response % (MC38 tumor cells [3]) [%]	Objective Response Rate % (MC38 tumor cells [3]) [%]	Overall Survival (OS) (MC38 tumor cells [3])	Partial Response % (MC38 tumor cells [3]) [%]
O=c1[nH]cc(F)c(=O)[nH]1 [Compound 5-FU, 5-Fluorouracil]	30	0	0	0	100								
O=C1[O][Pt]2([NH][C@@H]3CCCC[C@H]3[NH]2)[O]C1=O [Oxaliplatin, oxaliplatin, reference compound]						22	22	36	0	10	10	31	0
